Values joined by “and” are separate entries in the source; they are usually repeats but may differ in a detail not shown here. Identical values can stand only once. Square brackets hold non-standard residues; d marks the D form. Peptide text beside a SMILES is read from it.
How the values were obtained:
[1] = system: dsDNA-stimulated THP1 cells; experiment: qPCR of IFNB1/CXCL10/IL6 mRNA in THP1 cells stimulated by dsDNA (ISD, HSV60mer); format: cell-based, human; conditions: for IFNB1 mRNA level (Fig. S7c): XQ2B; for Relative mRNA level CXCL10 (Fig. S7d) / Relative mRNA level IFNB1 (Fig. S7d) / Relative mRNA level IL6 (Fig. S7d): ISD +
Text: To screen direct cGAS inhibitors targeting protein-DNA interface from our developed focused library of macrocyclic peptides, we applied an RNA-based fluorescent biosensor for 2’,3’-cGAMP to detect cGAS activity in vitro (Supplementary Fig. 1a)[49]. The formation of 2’,3’-cGAMP from ATP and GTP was catalyzed by recombinant human cGAS enzyme (hcGAS-ΔN, residues 147–522, Supplementary Fig. 1b) in the presence of ISD (interferon stimulatory DNA, a 45-bp dsDNA), which was readily quantified by the RNA-based fluorescent biosensor and was further confirmed by ion exchange chromatography (Supplementary Fig. 1c). […] Subsequently, a total of 90 macrocyclic peptides were screened at a concentration of 20 μM (Fig. 1a and Supplementary Fig. 1e), and 4 hits (XQ2, XQ8, XQ19, and XQ46) were obtained for further testing at a cut-off of 40% inhibition (Supplementary Table 1). To evaluate the inhibitory effect of the hits against cGAS in cells, we employed real-time quantitative PCR (qPCR) to examine mRNA levels of IFNΒ1 in THP1 cells. The reported cGAS inhibitor RU.521 was used as the positive control, and the non-active peptide XQ28 in the screening assay was used as the negative control. […] The inhibition of cGAS by these hits was further confirmed in the reporter cell line THP1-Lucia ISG (Invivogen) that expresses secreted luciferase induced by an IRF3-inducible ISG54 promoter (Fig. 1c). The discrepancy between the inhibitory effect of the hits in protein and cellular assays may be attributed to their different cellular permeability.
(§1) The indicated cells were stimulated with either ISD (Sangon Biotech), HSV-1 (Provided by Dr. Zhengfan Jiang), HSV60mer (Sangon Biotech), SATE-cddA[70], 2’3’-cGAMP (Invivogen, Cat# tlrl-nacga23-1), ADU-S100 (MedChemExpress, Cat# HY-12885A) or Poly(I:C) (Invivogen, Cat# tlrl-pic) after XQ2 or XQ2B treatment. Total RNA was isolated from indicated cells that incubated with the drugs for indicated time or mice tissues by using NucleoZOL reagent (MACHEREY-NAGEL) according to the manufacturer’s instructions. The quantifications of mRNA levels were carried out by real-time PCR using a PerfectStart® Uni RT&qPCR Kit (TransGen Biotech) on the QuantStudio 5 qPCR machine (Applied Biosystems). Samples were carried out in triplicate and the target CT values were normalized to GAPDH CT values. Primers of qPCR used in this study can be found in Supplementary Table S2.

HSV-1 in THP1 cells = experiment: HSV-1(UL5) mRNA by qPCR (virus infection of cells); format: cell-based, herpes simplex virus-1; set-up: key to HSV-1(UL5) mRNA, qPCR, Fig. 5d / HSV-1(UL5) mRNA (Fig. S8e): relative mRNA level, target CT normalized to GAPDH CT
Procedure: as §1

[2] = system: macrophage RAW264.7 cells; experiment: qPCR of Ifnb1/Cxcl10/Il6 mRNA in RAW264.7 cells (ISD or HSV-1); format: cell-based, mouse; set-up: key to Ifnb1 mRNA (Fig. S2c) / Cxcl10 mRNA (Fig. S2c) / Ifnb1 mRNA (Fig. S2d) / Cxcl10 mRNA (Fig. S2d) / Ifnb1 mRNA (Fig. S7g) / Cxcl10 mRNA (Fig. S7g) / Il6 mRNA (Fig. S7g): mRNA level normalized to GAPDH (relative expression)
Procedure: as §1, with “S2. […]” for “S2.”
(c) L929, p = 0.0005 (Ifnb1),
BMDMs, p = 0.0001 (Ifnb1), p < 0.0001 (Cxcl10).
representative of three independent experiments in (a-g). (Data are presented as mean ± SD, n = 3 independent
Source data are provided as a Source Data file.

## CC(C)C[C@@H]1NC(=O)[C@H](CCCNC(=N)N)NC(=O)[C@H](C(C)C)NC(=O)[C@@H]2CCCN2C(=O)[C@@H](Cc2ccccc2)NC(=O)[C@H](CC(C)C)NC(=O)[C@H](CCCNC(=N)N)NC(=O)[C@H]([C@@H](C)O)NC(=O)[C@H](C)NC(=O)[C@@H](Cc2ccccc2)NC1=O [XQ2B] (cyclo([dF]ATRL[dF]PVRL))
[1]; HSV60mer
  IFNB1 mRNA level (Fig. S7c): 40.2098 and 37.8755 and 37.7329
[1]; XQ2B 0.63 μM
  Relative mRNA level CXCL10 (Fig. S7d): 75.7262 and 111.48 and 109.732
  Relative mRNA level IFNB1 (Fig. S7d): 143.341 and 159.417 and 146.307
  Relative mRNA level IL6 (Fig. S7d): 4.851 and 5.001 and 4.853
[1]; XQ2B 1.25 μM
  Relative mRNA level CXCL10 (Fig. S7d): 71.0232 and 80.5931 and 82.552
  Relative mRNA level IFNB1 (Fig. S7d): 150.862 and 127.331 and 129.696
  Relative mRNA level IL6 (Fig. S7d): 5.209 and 4.534 and 5.634
[1]; XQ2B 2.5 μM
  Relative mRNA level CXCL10 (Fig. S7d): 65.3896 and 90.4406 and 75.1347
  Relative mRNA level IFNB1 (Fig. S7d): 125.32 and 106.736 and 118.852
  Relative mRNA level IL6 (Fig. S7d): 3.096 and 3.258 and 2.284
[1]; XQ2B 5 μM
  Relative mRNA level CXCL10 (Fig. S7d): 49.8503 and 48.6212 and 43.7599
  Relative mRNA level IFNB1 (Fig. S7d): 64.7201 and 61.5772 and 71.2108
[1]; XQ2B 10 μM
  Relative mRNA level CXCL10 (Fig. S7d): 34.1653 and 30.6356 and 36.3338
  Relative mRNA level IFNB1 (Fig. S7d): 33.5888 and 35.227 and 34.4163
  Relative mRNA level IL6 (Fig. S7d): 0.9806 and 0.7505 and 1.24
[1]; XQ2B 20 μM
  Relative mRNA level CXCL10 (Fig. S7d): 10.6053 and 10.5964 and 12.3293
  Relative mRNA level IFNB1 (Fig. S7d): 3.764 and 4.346 and 4.187
[1]; ISD
  IFNB1 mRNA level (Fig. S7c): 15.0362 and 16.705 and 17.0928
[1]; Mock
  IFNB1 mRNA level (Fig. S7c): 1.262 and 0.9081 and 0.8724
[1]; THP1
  dsDNA/ISD-induced IFNB1, CXCL10, IL6 expression: comparable cGAS inhibitory effect as that of XQ2
HSV-1 in THP1 cells; 10 μM
  HSV-1 infection of THP1 cells, HSV1(UL5) mRNA: facilitated HSV-1 infection
HSV-1 in THP1 cells; HSV-1(1×104) 24h
  HSV-1(UL5) mRNA (Fig. S8e): 2.313 and 2.598 and 2.002
HSV-1 in THP1 cells; HSV-1(2×104) 24h
  HSV-1(UL5) mRNA (Fig. S8e): 4.745 and 4.808 and 4.905
[2]; ISD+XQ2B
  Cxcl10 mRNA (Fig. S7g): 1166.92 and 1221.79 and 1328.72
  Ifnb1 mRNA (Fig. S7g): 1896.14 and 2591.99 and 2490
  Il6 mRNA (Fig. S7g): 1526.53 and 1838.42 and 1588.85
[2]; XQ2B alone
  Cxcl10 mRNA (Fig. S7g): 2.509 and 2.275 and 2.115
  Ifnb1 mRNA (Fig. S7g): 1.291 and 1.1996 and 1.38

— publication PMC10545747, “Development of cyclopeptide inhibitors of cGAS targeting protein-DNA interaction and phase separation” (Nature Communications, 2023)
